Results as given in paper PMC7667029, “A Targeted Computational Screen of the SWEETLEAD Database Reveals FDA-Approved Compounds with Anti-Dengue Viral Activity” (mBio, 2020).
Entries after “also recorded” stand apart in the source; their conditions may differ.

What was measured:
dengue virus [1] = assay: Initial screening of hit compounds for anti-dengue activity in tissue culture cells (Table S1); assay type: cell-based; settings: viral titer relative to vehicle, tissue culture cell lines (BHK-21 48 hpi, Fig. S1; Huh7, Fig. 2C, 3C, 4C)
Protocol: For each query molecule, the top 500 compound hits obtained from the ROCS algorithm, as ranked by the Tanimoto combo score (see Data Set S1 in the supplemental material), were manually inspected for similar chemical and structural features. They were further prioritized by factors such as a lack of known side effects, commercial availability, and the intellectual property considerations that would be needed for worldwide, inexpensive use. Fourteen candidates were tested for their effects on dengue virus growth and toxicity in BHK-21 and Huh7 cells (see Table S1 and Fig. S1 in the supplemental material).
(§1) Supplementary file : TABLE S1 Summary of hits for lead compounds ARDP0006 and ST-148 screened for anti-dengue activity in tissue culture cells. Hit compounds were tested for anti-dengue activity and cell toxicity in tissue culture cell lines. Antiviral activity is summarized as follows: −, not antiviral, with titer greater than 50% of vehicle; +, weakly antiviral, with titer between 20 and 50% of vehicle; ++, moderately antiviral, with titer between 5 and 20% of vehicle; +++, highly antiviral, with titer less than 5% of vehicle. Toxicity at these doses is represented as follows: −, nontoxic, with cell viability greater than 80% of vehicle; +, mild toxicity, with cell viability between 60 and 80% of vehicle; +++, high toxicity, with cell viability less than 60% of vehicle. Data summarized here are depicted graphically in Fig. S1 and Fig. 2C, 3C, and [4]C. The Tanimoto combo score of each hit during initial ROCS screening is indicated; higher Tanimoto combo scores are indicative of increased chemical similarity. Download Table S1, PDF file, 0.04 MB.
Supplementary file : FIG S1 Initial screening of eliminated hit compounds for anti-dengue activity in tissue culture cells. BHK-21 cells were pretreated with the compounds at the indicated concentrations for 30 min, infected with dengue virus at an MOI of 0.1 PFU/cell for 1 h, and then posttreated with compound. At 48 hpi, cellular supernatant was collected and titered by plaque assay (purple). Cell viability in uninfected cells in the presence of compounds for 48 h was measured by WST assay (gray). Both viral titer and cell viability are normalized to their relative DMSO vehicle control, N = 2. Download FIG S1, PDF file, 0.06 MB.

dengue viral RNA = assay: Intracellular viral RNA quantification by qRT-PCR in infected Huh7 cells; assay type: cell-based, dengue virus
Protocol: (§2) (A) Chemical structures and (B) ROCS overlay of ST-148 and niclosamide. […] Compound addition, viral growth, and cytotoxicity assays were performed as described in the legend to Fig. 2C. (D) Virucidal activity of compounds at the concentrations indicated was measured after 60-min incubation of drugs with virus-containing solutions at 37°C. Viral titer was quantified by plaque assay on BHK-21 cells. n = 3. Statistical significance was evaluated by one-way ANOVA with Sidak’s multiple-comparison test and indicated as follows: *, P < 0.05; **, P < 0.01; ****, P < 0.0001; ns, not significant. […] On the left, cells were pretreated for 2 h prior to infection, compounds were removed during a 1-h infection at an MOI of 0.5 PFU/cell and then readministered after removal of viral inoculum. On the right, cells were similarly infected and compounds were first introduced 4 h after starting the infection. […] (F) To test the effect of ST-148 and niclosamide on viral RNA replication, Huh7 cells were infected for 1 h at an MOI of 0.5 PFU/cell. […] Intracellular RNA was collected at the time points indicated and quantified by qRT-PCR. […] N = 4, two-way ANOVA with Dunnett’s multiple-comparison test. […] After 4 h of infection, 10 μM ST-148 or 1 μM niclosamide was added; extracellular virus was collected at 24 hpi and quantified by plaque assay.

dengue virus [2] = assay: Virucidal activity assay, 60-min incubation of drug with virus, plaque assay on BHK-21 cells; assay type: cell-based; settings: 0.1 μM ST-148, 1 h at 37°C
Protocol: as §2
Compounds were diluted to 100× in DMSO, then further diluted 1:100 into phosphate-buffered saline (PBS) containing dengue virus to a final volume of 200 μl and mixed. Aliquots were taken for plaque assays immediately after addition of compounds (time [T] = 0 min) or after incubation at 37°C for 60 min (T = 60 min).

DENV2 = assay: Antiviral activity in DENV2-infected Huh7 cells, infectious virus in supernatant by plaque assay; assay type: cell-based, dengue virus
Protocol: FIG 2 Pyrimethamine inhibits dengue virus and NS2B/3 proteinase cleavage like ARDP0006. (A) Chemical structures and (B) ROCS overlay of ARDP0006 and pyrimethamine. […] Infectious virus in cell supernatant was quantified by plaque assay at 24 hpi (left y axis, black or red). Cell viability was measured at the same pyrimethamine doses 24 h posttreatment by WST-1 assay (right y axis, gray). Viral titer and cell viability were normalized to DMSO-treated samples. (D) Splenic titers of DENV2-infected AGB6 mice at 4 days postinfection. Mice were infected with 1 × 10^6 PFU DENV2 and treated twice daily with 20 mg/kg pyrimethamine (n = 9) or a vehicle control (n = 10). Data were analyzed by two-tailed unpaired t test. (E) Cleavage kinetics of NS2B/3/4A in the presence of 100 μM pyrimethamine. NS2B/3/4A protein was expressed in vitro and radiolabeled with [^35S]methionine, followed by treatment with 100 μM pyrimethamine or DMSO. Reaction samples were obtained over a 45-min time course, separated by SDS-PAGE, and the fraction of uncleaved proteinase precursor remaining was determined as described previously ([23]). Data from three replicates were fit using single-phase exponential decay functions, and P value was determined by comparing the rate constant, K, of the models using the extra sum-of-squares F test.
Dengue plaque assays were carried out on BHK-21 cells in 24-well plates. Cells were infected with 10-fold serial dilutions of virus, which were allowed to adsorb for at least 1 h at 37°C, and overlaid with standard cell culture medium plus 0.37% (w/vol) sodium bicarbonate and 0.8% (w/vol) Aquacide II (Millipore Calbiochem). After 7 days of incubation at 37°C, 5% CO2, cells were fixed with 5% (final) formaldehyde and stained with crystal violet for plaque enumeration.
Between 4 × 10^4 and 1 × 10^5 Huh7 cells per well were seeded into 24-well plates 1 day prior to infection. Compounds were diluted to 100× final concentration in DMSO and then further diluted 1:100 into appropriate cell culture. Unless otherwise indicated, tested compounds were present for 1 h pretreatment and readministered for posttreatment following infection. […] Media and drugs were removed from cells for infection at a multiplicity of infection (MOI) of 0.1 or 0.5 in 200 μl cold medium per well. After 1 h at 37°C, virus inoculum was removed by aspiration and replaced with medium plus compound or control. After 24-h total infection, infectious virus was quantified by plaque assay. Antiviral IC50 dose-response curves were fitted in GraphPad Prism 8 using the “[inhibitor] versus response, variable slope” function with a constraint “bottom > 0.” IC90 values are defined as the dose at which “y = (span × 0.1) + bottom.”

BHK-21 and Huh7 cells = assay: Cell viability by WST assay in uninfected cells (Table S1); assay type: cell-based; settings: cell viability relative to vehicle at these doses
Protocol: as §1, with “The Tanimoto combo score of each hit during initial ROCS screening is indicated; higher Tanimoto combo scores are indicative of increased chemical similarity. Download Table S1, PDF file, 0.04 MB.” left out
Supplementary file : FIG S1 Initial screening of eliminated hit compounds for anti-dengue activity in tissue culture cells. […] Cell viability in uninfected cells in the presence of compounds for 48 h was measured by WST assay (gray). […]
Mock-infected wells were used to determine cell viability in the presence of chemical compounds compared to 1% DMSO vehicle control. Cell viability was determined using the WST-1 kit (Abcam) per the manufacturer’s instructions. […]

Compound | Antiviral (dengue virus [1]) | other results
COc1cc2nc(N3CCN(C(=O)C4COc5ccccc5O4)CC3)nc(N)c2cc1OC (stereo not shown) [Doxazosin] | + (weakly antiviral, with titer between 20 and 50% of vehicle) | –
CC1=NN(c2ccc(C)c(C)c2)C(=O)/C1=N\Nc1cccc(-c2cccc(C(=O)O)c2)c1O [Eltrombopag] | − (not antiviral, with titer greater than 50% of vehicle) | –
Nc1c2c(nc3ccccc13)CCCC2O (stereo not shown) [Hydroxy tacrine] | − (not antiviral, with titer greater than 50% of vehicle) | –
C[C@@]1(O)[C@H](O)[C@@H](CO)O[C@H]1n1ccc2c(N)ncnc21 [MK0608] | – | Viral RNA abundance (dengue viral RNA; 50 μM MK0608, control for inhibited vRNA replication): significantly reduced vRNA load; also recorded: strongly reduced viral RNA abundance
Cc1cnc(NC(=O)C2=C(O)c3ccccc3S(=O)(=O)N2C)s1 [Meloxicam] | − (not antiviral, with titer greater than 50% of vehicle) | –
COc1c2occc2cc2ccc(=O)oc12 [Methoxsalen] | − (not antiviral, with titer greater than 50% of vehicle) | –
Cc1c(NC(=O)c2cccnc2)c(=O)n(-c2ccccc2)n1C [Nifenazone] | + (weakly antiviral, with titer between 20 and 50% of vehicle) | –
COc1ccc2[nH]c([S+]([O-])Cc3ncc(C)c(OC)c3C)nc2c1 (stereo not shown) [Omeprazole] | − (not antiviral, with titer greater than 50% of vehicle) | –
Cc1nccn1CC1CCc2c(c3ccccc3n2C)C1=O (stereo not shown) [Ondansetron] | ++ (moderately antiviral, with titer between 5 and 20% of vehicle) | –
Cc1cccn2c(=O)c(-c3nnn[nH]3)cnc12 [Pemirolast] | − (not antiviral, with titer greater than 50% of vehicle) | –
Nc1c(C(=O)Nc2nnc(-c3ccccc3)s2)sc2nc3c(cc12)CCCCC3 [ST-148] | – | Viral RNA abundance (dengue viral RNA; added 4 h postinfection at IC90 dose (5.6 μM ST-148, 0.66 μM niclosamide)): no difference in viral RNA abundance; Virucidal activity (viral infectivity after coincubation) (dengue virus [2]): significantly reduced viral infectivity; Virion production at increased dose after entry (DENV2; 10 μM ST-148 or 1 μM niclosamide added after 4 h of infection, extracellular virus at 24 hpi): effective during later, postentry stages; also recorded: inhibited virion production; IC90 (DENV2; Dengue virus, Huh-7, DENV2-infected Huh7 cells, from dose-response curve fit, 24 hpi): 5600 nM; IC50 (DENV2; Dengue virus, Huh-7, DENV2-infected Huh7 cells, single infectious cycle, plaque assay at 24 hpi, read-out: IC50 of viral inhibition (infectious extracellular virus)): 380 nM; Viral titer on delayed addition of compound (DENV2; IC90 dose first added 4 h after infection, Huh7, 24 hpi): eliminated the observed reduction of viral titer
Cc1noc(NS(=O)(=O)c2ccc(N)cc2)c1C [Sulfisoxazole] | + (weakly antiviral, with titer between 20 and 50% of vehicle) | –
Nc1nc(N)c2nc(-c3ccccc3)c(N)nc2n1 [Triamterine] | +++ (highly antiviral, with titer less than 5% of vehicle) | Toxicity (BHK-21 and Huh7 cells): +++ (high toxicity, with cell viability less than 60% of vehicle)
